# Measured values taken from PubChem BioAssay AID248 (DTP/NCI, 2004).
# Inconclusive results and toxic doses are left out.
# Tested on: L1210 leukemia ip in BDF1 mice, survival T/C
# Assay: NCI In Vivo Anticancer Drug Screen. Data for tumor model L1210 Leukemia (intraperitoneal) in B6D2F1 (BDF1) mice
# Conditions: endpoint: mean survival time, higher = longer survival
# Summary of the method: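 Tumor cells were implanted, animals were treated, and survival was followed. The result divides the treated measurement by the vehicle-control measurement.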
# [1] = dose: 100.0 mg/kg/injection, schedule: Q04DX002 (ip), vehicle: Klucel (hydroxypropylcellulose) (HPC)
# [2] = dose: 200.0 mg/kg/injection, schedule: Q04DX002 (ip), vehicle: Klucel (hydroxypropylcellulose) (HPC)
# [3] = dose: 400.0 mg/kg/injection, schedule: Q04DX002 (ip), vehicle: Klucel (hydroxypropylcellulose) (HPC)
# [4] = dose: 50.0 mg/kg/injection, schedule: Q01DX001 (ip), vehicle: carboxymethylcellulose (CMC)
# [5] = dose: 100.0 mg/kg/injection, schedule: Q01DX001 (ip), vehicle: carboxymethylcellulose (CMC)
# [6] = dose: 200.0 mg/kg/injection, schedule: Q01DX001 (ip), vehicle: carboxymethylcellulose (CMC)
# [7] = dose: 400.0 mg/kg/injection, schedule: Q01DX001 (ip), vehicle: carboxymethylcellulose (CMC)
# [8] = dose: 200.0 mg/kg/injection, schedule: Q04DX003 (ip), vehicle: saline with Tween-80
# [9] = dose: 100.0 mg/kg/injection, schedule: Q01DX001 (ip), vehicle: other
# [10] = dose: 200.0 mg/kg/injection, schedule: Q01DX001 (ip), vehicle: other
# [11] = dose: 400.0 mg/kg/injection, schedule: Q01DX001 (ip), vehicle: other
# [12] = dose: 100.0 mg/kg/injection, schedule: Q04DX003 (ip), vehicle: saline with Tween-80
# [13] = dose: 400.0 mg/kg/injection, schedule: Q04DX003 (ip), vehicle: saline with Tween-80
# [14] = dose: 100.0 mg/kg/injection, schedule: Q04DX003 (ip), vehicle: saline
# [15] = dose: 200.0 mg/kg/injection, schedule: Q04DX003 (ip), vehicle: saline
# [16] = dose: 400.0 mg/kg/injection, schedule: Q04DX003 (ip), vehicle: saline
# [17] = dose: 100.0 mg/kg/injection, schedule: Q01DX001 (ip), vehicle: saline
# [18] = dose: 200.0 mg/kg/injection, schedule: Q01DX001 (ip), vehicle: saline
# [19] = dose: 400.0 mg/kg/injection, schedule: Q01DX001 (ip), vehicle: saline
# [20] = dose: 100.0 mg/kg/injection, schedule: Q01DX009 (ip), vehicle: saline with Tween-80
# [21] = dose: 200.0 mg/kg/injection, schedule: Q01DX009 (ip), vehicle: saline with Tween-80
structure (smiles),measurement,setting,value
NC(=S)NN=C1CCCCC1,T/C,"dose: 5.0 mg/kg/injection, schedule: Q01DX001 (ip), vehicle: carboxymethylcellulose (CMC)",96 % of control
same,T/C,"dose: 10.0 mg/kg/injection, schedule: Q01DX001 (ip), vehicle: carboxymethylcellulose (CMC)",96 % of control
same,T/C,"dose: 20.0 mg/kg/injection, schedule: Q01DX001 (ip), vehicle: carboxymethylcellulose (CMC)",107 % of control
CC(C)(C)c1ccc(S(=O)(=O)Cl)cc1,T/C,[1],97 % of control
same,T/C,[2],104 % of control
same,T/C,[3],90 % of control
Ic1ccc(N=Cc2cccs2)cc1,T/C,[4],100 % of control
same,T/C,[5],94 % of control
same,T/C,[6],92 % of control
same,T/C,[7],94 % of control
CS(=O)(=O)Nc1ccc(Nc2c3ccccc3nc3cc(Cl)ccc23)cc1,T/C,"dose: 10.0 mg/kg/injection, schedule: Q01DX009 (sc), vehicle: saline",118 % of control
same,T/C,"dose: 20.0 mg/kg/injection, schedule: Q01DX009 (sc), vehicle: saline",113 % of control
same,T/C,"dose: 133.0 mg/kg/injection, schedule: Q04DX003 (ip), vehicle: saline with Tween-80",176 % of control
same,T/C,[8],103 % of control
same,T/C,"dose: 300.0 mg/kg/injection, schedule: Q04DX003 (ip), vehicle: saline with Tween-80",113 % of control
O=C(C[P+](c1ccccc1)(c1ccccc1)c1ccccc1)c1ccc(Br)cc1,T/C,"dose: 50.0 mg/kg/injection, schedule: Q01DX001 (ip), vehicle: other",100 % of control
same,T/C,[9],87 % of control
same,T/C,[10],103 % of control
same,T/C,[11],105 % of control
CC1CN1c1nc(N2CC2C)nc(N2CC2C)n1 (stereo not given),T/C,"dose: 1.56 mg/kg/injection, schedule: Q01DX009 (ip), vehicle: saline",97 % of control
same,T/C,"dose: 3.13 mg/kg/injection, schedule: Q01DX009 (ip), vehicle: saline",95 % of control
same,T/C,"dose: 5.0 mg/kg/injection, schedule: Q01DX001 (ip), vehicle: saline",100 % of control
same,T/C,"dose: 6.25 mg/kg/injection, schedule: Q01DX009 (ip), vehicle: saline",92 % of control
same,T/C,"dose: 10.0 mg/kg/injection, schedule: Q01DX001 (ip), vehicle: saline",109 % of control
same,T/C,"dose: 12.5 mg/kg/injection, schedule: Q01DX009 (ip), vehicle: saline",87 % of control
same,T/C,"dose: 20.0 mg/kg/injection, schedule: Q01DX001 (ip), vehicle: saline",109 % of control
CCCCN(CCCC)CC(O)c1cc(Cc2ccccc2)nc2c(Cl)cc(Cl)cc12 (stereo not given),T/C,[12],89 % of control
same,T/C,[8],100 % of control
same,T/C,[13],100 % of control
Cc1nnc(NC(=O)C(Cl)Cl)s1,T/C,[9],96 % of control
same,T/C,"dose: 100.0 mg/kg/injection, schedule: Q01DX009 (ip), vehicle: Klucel (hydroxypropylcellulose) (HPC)",96 % of control
same,T/C,"dose: 100.0 mg/kg/injection, schedule: Q04DX003 (ip), vehicle: other",95 % of control
same,T/C,[10],98 % of control
same,T/C,"dose: 200.0 mg/kg/injection, schedule: Q01DX009 (ip), vehicle: Klucel (hydroxypropylcellulose) (HPC)",90 % of control
same,T/C,"dose: 200.0 mg/kg/injection, schedule: Q04DX003 (ip), vehicle: other",96 % of control
same,T/C,[11],101 % of control
same,T/C,"dose: 400.0 mg/kg/injection, schedule: Q01DX009 (ip), vehicle: Klucel (hydroxypropylcellulose) (HPC)",93 % of control
same,T/C,"dose: 400.0 mg/kg/injection, schedule: Q04DX003 (ip), vehicle: other",87 % of control
C[n+]1cc(I)cc2ccccc21,T/C,[4],97 % of control
same,T/C,[5],103 % of control
same,T/C,[6],103 % of control
same,T/C,[7],101 % of control
Oc1ccccc1/C=N\Nc1ccccc1,T/C,[14],100 % of control
same,T/C,[15],95 % of control
same,T/C,[16],103 % of control
CC(=O)OC1CC2C(C)(C)C(=O)C=CC2(C)C2CCC3(C)C(c4ccoc4)OC(=O)C4OC43C12C (stereo not given),T/C,"dose: 100.0 mg/kg/injection, schedule: Q01DX001 (sc), vehicle: steriod suspending solution",104 % of control
same,T/C,"dose: 200.0 mg/kg/injection, schedule: Q01DX001 (sc), vehicle: steriod suspending solution",104 % of control
same,T/C,"dose: 400.0 mg/kg/injection, schedule: Q01DX001 (sc), vehicle: steriod suspending solution",92 % of control
CCCCCCCCCC(=O)N/N=C/c1ccccc1Cl,T/C,"dose: 12.5 mg/kg/injection, schedule: Q01DX009 (ip), vehicle: Klucel (hydroxypropylcellulose) (HPC)",112 % of control
same,T/C,"dose: 25.0 mg/kg/injection, schedule: Q01DX009 (ip), vehicle: Klucel (hydroxypropylcellulose) (HPC)",113 % of control
same,T/C,"dose: 50.0 mg/kg/injection, schedule: Q01DX009 (ip), vehicle: Klucel (hydroxypropylcellulose) (HPC)",104 % of control
Cc1cc(=O)[nH]c2ccc(Cc3ccc(Cl)cc3)cc12,T/C,[17],97 % of control
same,T/C,[18],98 % of control
same,T/C,[19],95 % of control
NC(N)=NC(N)=Nc1ccccc1,T/C,[1],101 % of control
same,T/C,[2],105 % of control
same,T/C,[3],97 % of control
O=C(O)c1cccc(S(=O)(=O)O)c1,T/C,[17],105 % of control
same,T/C,[18],98 % of control
same,T/C,[19],102 % of control
CSc1nc2ncnn2c(=O)[nH]1,T/C,"dose: 50.0 mg/kg/injection, schedule: Q04DX003 (ip), vehicle: saline",96 % of control
same,T/C,[14],94 % of control
same,T/C,[15],100 % of control
same,T/C,[16],92 % of control
Cc1ccc(S(=O)(=O)N/N=C(/c2ccccc2)c2cccs2)cc1,T/C,[20],102 % of control
same,T/C,[12],90 % of control
same,T/C,[21],91 % of control
same,T/C,[8],96 % of control
same,T/C,[13],96 % of control
NCC(=O)c1ccc(-c2ccccc2)cc1,T/C,[17],97 % of control
same,T/C,[14],90 % of control
same,T/C,[18],92 % of control
same,T/C,[15],98 % of control
same,T/C,[19],97 % of control
CCCN(CCC)CCC#N,T/C,"dose: 59.0 mg/kg/injection, schedule: Q01DX009 (ip), vehicle: saline with Tween-80",100 % of control
same,T/C,[12],93 % of control
same,T/C,"dose: 118.0 mg/kg/injection, schedule: Q01DX009 (ip), vehicle: saline with Tween-80",105 % of control
same,T/C,[8],93 % of control
COc1ccc(C=NCCN=Cc2ccc(OC)cc2OC)c(OC)c1,T/C,"dose: 6.25 mg/kg/injection, schedule: Q01DX009 (ip), vehicle: saline with Tween-80",97 % of control
same,T/C,"dose: 6.25 mg/kg/injection, schedule: Q04DX003 (ip), vehicle: saline with Tween-80",98 % of control
same,T/C,"dose: 12.5 mg/kg/injection, schedule: Q01DX009 (ip), vehicle: saline with Tween-80",87 % of control
same,T/C,"dose: 12.5 mg/kg/injection, schedule: Q04DX003 (ip), vehicle: saline with Tween-80",91 % of control
same,T/C,"dose: 25.0 mg/kg/injection, schedule: Q01DX009 (ip), vehicle: saline with Tween-80",87 % of control
same,T/C,"dose: 25.0 mg/kg/injection, schedule: Q04DX003 (ip), vehicle: saline with Tween-80",95 % of control
Oc1cccnc1CN1CCOCC1,T/C,[20],96 % of control
same,T/C,[12],97 % of control
same,T/C,[21],89 % of control
same,T/C,[8],108 % of control
same,T/C,"dose: 400.0 mg/kg/injection, schedule: Q01DX009 (ip), vehicle: saline with Tween-80",96 % of control
same,T/C,[13],100 % of control
